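Grown in 96-well plates, cells were treated for 48 hours with each compound at five concentrations. Insufficient inhibition: endpoint recorded as highest concentration tested. At the TGI there is no net growth.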
Tests used:
Assay in all cases: NCI anticancer screen, dose series, 48 h
[1] = test system: CCRF-CEM leukemia
[2] = test system: MALME-3M melanoma
[3] = test system: MCF7 breast
[4] = test system: MDA-MB-231 breast
[5] = test system: MDA-MB-435
[6] = test system: SF-295 CNS
[7] = test system: SK-MEL-28 melanoma
[8] = test system: SK-OV-3 ovarian
[9] = test system: SR leukemia
[10] = test system: T-47D breast

Row | SMILES | TGI [1] | TGI [2] | TGI [3] | TGI [4] | TGI [5] | TGI [6] | TGI [7] | TGI [8] | TGI [9] | TGI [10]
1 | COC(=O)N[C@H](C(=O)O)C(C)O[Si](C)(C)C(C)(C)C (stereo partly drawn) | > 100 µM | > 100 µM | > 100 µM | > 100 µM | > 100 µM | > 100 µM | > 100 µM | > 100 µM | > 100 µM | > 100 µM
2 | NCC(O)CNC(=O)c1ccc(-c2ccc(-c3ccc(C(=O)NCC(O)CN)cc3)o2)cc1 (stereo not drawn) | > 100 µM | 44.2 µM | > 100 µM | 54.2 µM | > 100 µM | 56.6 µM | > 100 µM | 58 µM | > 100 µM | 92.6 µM
3 | COC(=O)c1c(O)ccc2[nH]c3c(O)c4ccccc4cc3c12 | 63.1 µM | 51.9 µM | 56.2 µM | > 100 µM | 70.7 µM | 38.1 µM | 76.4 µM | 90 µM | > 100 µM | 36.6 µM
4 | C=C1CC(Cn2ccc(=O)[nH]c2=O)(c2ccc(Cl)cc2)OC1=O (stereo not drawn) | 3.46 µM | 7.13 µM | 7.56 µM | 31.4 µM | 21 µM | 38.6 µM | 13.7 µM | 28.3 µM | 11.7 µM | 12.1 µM
5 | S=c1[nH]n2c(CCCCCCCCc3nnc4sc(=S)[nH]n34)nnc2s1 | > 100 µM | > 100 µM | > 100 µM | > 100 µM | > 100 µM | > 100 µM | > 100 µM | > 100 µM | > 100 µM | > 100 µM
6 | CC(=O)Oc1c2c(c3n(c1=O)CCCC3)C(=O)N(c1ccccc1)C2=O | > 100 µM | > 100 µM | > 100 µM | > 100 µM | > 100 µM | > 100 µM | > 100 µM | > 100 µM | > 100 µM | > 100 µM
7 | COc1ccc2c3c([nH]c2c1)CCN(CCCC(=O)c1ccc(F)cc1)C3 | 54.9 µM | 27 µM | 31.6 µM | 31.2 µM | 31 µM | 29.4 µM | 29.3 µM | 36.6 µM | 36.6 µM | 37 µM
8 | O=C1CC[C@@]2(O)[C@H]3Cc4ccc(-c5ccccc5)c5c4[C@@]2(CCN3CC2CC2)[C@H]1O5 | 49.7 µM | 29.9 µM | 33.5 µM | 31.8 µM | 26.6 µM | 33.6 µM | > 100 µM | 54 µM | > 100 µM | 35.7 µM
9 | CC(C)=CCc1[nH]c2ccccc2c1C1=C(O)C(=O)C(c2c(CC=C(C)C)[nH]c3ccccc23)=C(O)C1=O | 6.83 µM | 4.5 µM | 9.4 µM | 3.38 µM | 2.39 µM | 6.5 µM | 2.9 µM | 4.13 µM | 4.44 µM | 25 µM
10 | Cc1sc2c(c1C)/C(=N\O)c1cccn1-2 | > 100 µM | > 100 µM | > 100 µM | > 100 µM | > 100 µM | > 100 µM | > 100 µM | > 100 µM | > 100 µM | > 100 µM
11 | Cn1c(CO)ccc1-c1ccc(-c2ccc[se]2)[se]1 | > 60.6 µM | > 100 µM | > 52.4 µM | 60 µM | 26.2 µM | > 100 µM | > 100 µM | 27.2 µM | > 100 µM | > 100 µM
12 | CCCCCCCCCCCCCCC(O)C[N+](C)(CCO)CCO (stereo not drawn) | 9.82 µM | 7.54 µM | 36.5 µM | 3.76 µM | 21.3 µM | 9.96 µM | 22.4 µM | 30.7 µM | 10.1 µM | 30.6 µM
13 | CCOC(=O)c1nc2ccc(C(F)(F)F)cc2nc1Nc1ccc(Cl)c(Cl)c1 | > 100 µM | > 100 µM | > 100 µM | > 100 µM | > 100 µM | > 100 µM | > 100 µM | > 100 µM | > 100 µM | > 100 µM
14 | COc1cc2c(c(O)c1OC)CC1CCC(=O)N1C2c1cccc2ccccc12 (stereo not drawn) | > 100 µM | 44.5 µM | > 100 µM | 33 µM | 40.4 µM | 41.1 µM | 52.2 µM | > 100 µM | > 100 µM | 48.4 µM
15 | CC(C)(C)c1cc(OCc2nn3c(Cc4ccccc4)nnc3s2)c(Cl)cc1OCc1nn2c(Cc3ccccc3)nnc2s1 | > 100 µM | 36.6 µM | > 100 µM | > 100 µM | > 100 µM | > 100 µM | > 100 µM | > 100 µM | > 100 µM | > 100 µM
16 | Nc1nc(Cl)cc(NC2(CO)CCC2)n1 | > 100 µM | > 100 µM | > 100 µM | > 100 µM | > 100 µM | > 100 µM | > 100 µM | – | > 100 µM | > 100 µM
17 | CCOC(=O)C(NC(=O)c1ccccc1)(N1CCN(c2cc3c(cc2F)c(=O)c(C(=O)O)cn3CC)CC1)C(F)(F)F (stereo not drawn) | 86.2 µM | 90.1 µM | 69.2 µM | 82.9 µM | > 100 µM | > 100 µM | – | 79.5 µM | 62.5 µM | 88.6 µM

Source: PubChem BioAssay (NCI)
